Patent US20240132457A1, “3-(2-(BENZO[D]THIAZOL-2-YL)-2-(PHENYLSUFONAMIDO)ETHYL)BENZIMIDAMIDE DERIVATIVES AND RELATED COMPOUNDS AS TMPRSS2 INHIBITORS FOR THE TREATMENT OF VIRAL INFECTIONS” (INTEGERBIO, INC., priority 2020, published 2024)

Tests used:
Type in all cases: biochemical
ACE2 = ACE2 (Homo sapiens, UniProt Q9BYF1); assay: Non-TMPRSS2 protease panel: ACE2; settings: 10-dose, 3-fold from 10 μM
Method: (§1) Biochemical activity of compound 1 (racemic mixture, batch 1), compound 3 (racemic), compound 11, and compound 2 (enantiomer 1, batch 1) in proteases indicated in Table 21, Table 22, Table 23, and Table 24, respectively, were measured by testing the compounds in a 10-dose IC50 with a 3-fold series dilution starting at 10 μM against the proteases. The protease activities were monitored as a time-course measurement of the increase in fluorescence signal from fluorescently-labeled peptide substrate, and initial linear portion of slope (signal/min) was analyzed. The curve fits were performed when the activities at the highest concentration of compounds were less than 65%.

Cathepsin L = Cathepsin L (Homo sapiens, UniProt P07711); assay: Non-TMPRSS2 protease panel: Cathepsin L; settings: 10-dose, 3-fold from 10 μM
Method: as §1

FXa = biological target: T1, FXa (Homo sapiens, UniProt P00742); assay: Non-TMPRSS2 protease panel: FXa; settings: 10-dose, 3-fold from 10 μM
T1 construct: consisting of FXa, Kallikrein 1, MMP 1
Method: as §1

FXIa = biological target: T2, FXIa (Homo sapiens, UniProt P03951); assay: Non-TMPRSS2 protease panel: FXIa; settings: 10-dose, 3-fold from 10 μM
T2 construct: FVIIa, Fxa, FXIa, Furin
Method: as §1

Furin = Furin (Homo sapiens, UniProt P09958); assay: Non-TMPRSS2 protease panel: Furin; settings: 10-dose, 3-fold from 10 μM
Method: as §1

Matriptase 2 = biological target: T3, Matriptase 2 (Homo sapiens, UniProt Q8IU80); assay: Non-TMPRSS2 protease panel: Matriptase 2; settings: 10-dose, 3-fold from 10 μM
T3 sequence (Q8IU80 1-811): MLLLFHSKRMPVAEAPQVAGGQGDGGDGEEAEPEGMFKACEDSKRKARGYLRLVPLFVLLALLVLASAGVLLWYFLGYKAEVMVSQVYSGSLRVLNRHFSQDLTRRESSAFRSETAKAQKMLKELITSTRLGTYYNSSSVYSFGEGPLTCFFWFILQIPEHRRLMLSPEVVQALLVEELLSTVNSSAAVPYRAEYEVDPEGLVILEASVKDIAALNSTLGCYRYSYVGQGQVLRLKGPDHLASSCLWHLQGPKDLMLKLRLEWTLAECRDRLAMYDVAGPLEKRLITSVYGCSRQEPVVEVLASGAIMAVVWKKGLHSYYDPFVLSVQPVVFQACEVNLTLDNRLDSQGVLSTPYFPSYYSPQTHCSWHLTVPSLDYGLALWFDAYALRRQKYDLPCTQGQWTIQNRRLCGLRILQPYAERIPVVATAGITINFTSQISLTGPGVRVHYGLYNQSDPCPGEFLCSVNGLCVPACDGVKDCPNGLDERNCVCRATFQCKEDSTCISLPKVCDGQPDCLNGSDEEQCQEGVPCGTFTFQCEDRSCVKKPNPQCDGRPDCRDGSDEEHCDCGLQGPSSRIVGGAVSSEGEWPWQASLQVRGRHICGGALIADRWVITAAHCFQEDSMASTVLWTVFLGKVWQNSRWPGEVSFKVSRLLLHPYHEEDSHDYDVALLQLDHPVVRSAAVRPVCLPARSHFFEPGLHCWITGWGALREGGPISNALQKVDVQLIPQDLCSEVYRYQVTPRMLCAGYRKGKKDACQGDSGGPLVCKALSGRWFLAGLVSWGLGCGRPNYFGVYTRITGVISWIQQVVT
Method: as §1

MMP 1 = biological target: T4, MMP 1 (Homo sapiens, UniProt P03956); assay: Non-TMPRSS2 protease panel: MMP 1; settings: 10-dose, 3-fold from 10 μM
T4 sequence (P03956 100-469): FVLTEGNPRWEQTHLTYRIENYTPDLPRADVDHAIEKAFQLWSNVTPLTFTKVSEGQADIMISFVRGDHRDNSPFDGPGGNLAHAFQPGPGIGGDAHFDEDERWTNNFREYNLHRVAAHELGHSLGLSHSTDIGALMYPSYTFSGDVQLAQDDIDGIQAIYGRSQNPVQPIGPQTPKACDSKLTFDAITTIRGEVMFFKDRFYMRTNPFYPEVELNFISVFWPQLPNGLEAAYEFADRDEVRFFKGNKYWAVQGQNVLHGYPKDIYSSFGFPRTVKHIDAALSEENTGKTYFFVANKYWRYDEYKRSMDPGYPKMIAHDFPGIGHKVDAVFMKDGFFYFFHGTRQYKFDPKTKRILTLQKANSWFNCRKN
Method: as §1

MMP 7 = biological target: T5, MMP 7 (Homo sapiens, UniProt P09237); assay: Non-TMPRSS2 protease panel: MMP 7; settings: 10-dose, 3-fold from 10 μM
T5 sequence (P09237 95-267): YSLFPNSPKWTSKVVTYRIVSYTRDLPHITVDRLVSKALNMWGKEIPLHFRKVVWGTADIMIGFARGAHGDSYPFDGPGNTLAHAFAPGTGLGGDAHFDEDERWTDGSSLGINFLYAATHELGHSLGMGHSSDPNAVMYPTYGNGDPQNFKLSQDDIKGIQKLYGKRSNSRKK
Method: as §1

MMP 10 = MMP 10 (Homo sapiens, UniProt P09238); assay: Non-TMPRSS2 protease panel: MMP 10; settings: 3-fold from 10 μM
Method: as §1

Mpro = biological target: T6, Mpro (Severe acute respiratory syndrome coronavirus 2, UniProt P0DTD1); assay: Non-TMPRSS2 protease panel: Mpro; settings: 10-dose, 3-fold from 10 μM
T6 construct: MMP 14, Mpro, Plasma Kallikrein
Method: as §1

PLpro = biological target: T7, PLpro (Severe acute respiratory syndrome coronavirus 2, UniProt P0DTD1); assay: Non-TMPRSS2 protease panel: PLpro; settings: 10-dose, 3-fold from 10 μM
T7 construct: Plasma Kallikrein, Plasmin, Plpro, TACE
Method: as §1

TACE = TACE (Homo sapiens, UniProt P78536); assay: Non-TMPRSS2 protease panel: TACE; settings: 10-dose, 3-fold from 10 μM
Method: as §1

Thrombin a = Thrombin a (Homo sapiens, UniProt P00734); assay: Non-TMPRSS2 protease panel: Thrombin a; settings: 10-dose, 3-fold from 10 μM
Method: as §1

Tryptase g1 = Tryptase g1 (Homo sapiens, UniProt Q9NRR2); assay: Non-TMPRSS2 protease panel: Tryptase g1; settings: 10-dose, 3-fold from 10 μM
Method: as §1

Urokinase = Urokinase (Homo sapiens, UniProt P00749); assay: Non-TMPRSS2 protease panel: Urokinase; settings: 10-dose, 3-fold from 10 μM
Method: as §1

Sequence of Tryptase g1 (Q9NRR2 20-321): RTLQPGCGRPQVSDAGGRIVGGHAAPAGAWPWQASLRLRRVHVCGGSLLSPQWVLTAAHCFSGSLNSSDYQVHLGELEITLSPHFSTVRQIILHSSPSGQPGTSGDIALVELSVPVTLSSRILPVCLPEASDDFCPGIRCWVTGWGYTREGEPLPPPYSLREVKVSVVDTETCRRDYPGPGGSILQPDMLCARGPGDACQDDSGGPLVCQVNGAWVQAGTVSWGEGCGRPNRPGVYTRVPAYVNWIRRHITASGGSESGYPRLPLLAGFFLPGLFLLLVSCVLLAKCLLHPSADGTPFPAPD
Sequence of Furin (P09958 108-794): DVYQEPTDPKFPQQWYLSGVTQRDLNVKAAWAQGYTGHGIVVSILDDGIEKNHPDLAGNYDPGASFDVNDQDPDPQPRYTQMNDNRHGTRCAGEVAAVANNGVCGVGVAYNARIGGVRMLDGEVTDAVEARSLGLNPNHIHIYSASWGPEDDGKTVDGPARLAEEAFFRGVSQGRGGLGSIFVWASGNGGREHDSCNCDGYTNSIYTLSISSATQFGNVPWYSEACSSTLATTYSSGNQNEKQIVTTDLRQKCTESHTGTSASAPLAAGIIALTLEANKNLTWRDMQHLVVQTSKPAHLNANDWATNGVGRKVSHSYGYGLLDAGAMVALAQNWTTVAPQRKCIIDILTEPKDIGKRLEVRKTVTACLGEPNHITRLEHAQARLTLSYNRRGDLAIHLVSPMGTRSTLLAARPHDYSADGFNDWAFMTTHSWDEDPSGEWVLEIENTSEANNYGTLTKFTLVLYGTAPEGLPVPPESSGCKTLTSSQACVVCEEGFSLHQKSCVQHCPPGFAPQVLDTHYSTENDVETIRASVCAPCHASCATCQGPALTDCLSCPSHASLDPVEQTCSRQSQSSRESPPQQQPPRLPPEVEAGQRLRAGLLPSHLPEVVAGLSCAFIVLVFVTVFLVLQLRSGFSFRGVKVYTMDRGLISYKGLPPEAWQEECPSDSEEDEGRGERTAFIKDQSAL
Sequence of Cathepsin L (P07711 114-333): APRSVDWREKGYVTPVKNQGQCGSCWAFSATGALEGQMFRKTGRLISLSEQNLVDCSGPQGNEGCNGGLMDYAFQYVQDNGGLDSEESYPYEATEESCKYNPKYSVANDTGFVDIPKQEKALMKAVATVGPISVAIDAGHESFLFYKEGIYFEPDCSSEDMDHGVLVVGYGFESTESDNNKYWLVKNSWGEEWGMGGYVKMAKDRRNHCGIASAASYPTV
Sequence of TACE (P78536 215-824): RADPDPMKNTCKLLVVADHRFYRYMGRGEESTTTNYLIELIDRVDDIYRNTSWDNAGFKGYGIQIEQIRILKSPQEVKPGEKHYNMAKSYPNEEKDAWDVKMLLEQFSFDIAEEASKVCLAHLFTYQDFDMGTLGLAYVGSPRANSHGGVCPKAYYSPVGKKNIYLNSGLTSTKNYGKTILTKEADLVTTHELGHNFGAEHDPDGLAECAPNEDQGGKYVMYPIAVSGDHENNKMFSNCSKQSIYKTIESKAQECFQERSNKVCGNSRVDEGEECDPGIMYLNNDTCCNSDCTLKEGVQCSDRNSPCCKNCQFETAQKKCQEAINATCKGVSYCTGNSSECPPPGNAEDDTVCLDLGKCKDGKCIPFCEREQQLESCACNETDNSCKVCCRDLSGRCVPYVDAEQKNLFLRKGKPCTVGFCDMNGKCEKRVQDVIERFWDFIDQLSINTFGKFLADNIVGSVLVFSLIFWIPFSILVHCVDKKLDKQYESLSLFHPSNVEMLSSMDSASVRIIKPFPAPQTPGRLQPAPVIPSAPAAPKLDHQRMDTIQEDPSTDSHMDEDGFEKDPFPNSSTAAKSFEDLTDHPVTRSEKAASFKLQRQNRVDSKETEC
Sequence of ACE2 (Q9BYF1 18-805): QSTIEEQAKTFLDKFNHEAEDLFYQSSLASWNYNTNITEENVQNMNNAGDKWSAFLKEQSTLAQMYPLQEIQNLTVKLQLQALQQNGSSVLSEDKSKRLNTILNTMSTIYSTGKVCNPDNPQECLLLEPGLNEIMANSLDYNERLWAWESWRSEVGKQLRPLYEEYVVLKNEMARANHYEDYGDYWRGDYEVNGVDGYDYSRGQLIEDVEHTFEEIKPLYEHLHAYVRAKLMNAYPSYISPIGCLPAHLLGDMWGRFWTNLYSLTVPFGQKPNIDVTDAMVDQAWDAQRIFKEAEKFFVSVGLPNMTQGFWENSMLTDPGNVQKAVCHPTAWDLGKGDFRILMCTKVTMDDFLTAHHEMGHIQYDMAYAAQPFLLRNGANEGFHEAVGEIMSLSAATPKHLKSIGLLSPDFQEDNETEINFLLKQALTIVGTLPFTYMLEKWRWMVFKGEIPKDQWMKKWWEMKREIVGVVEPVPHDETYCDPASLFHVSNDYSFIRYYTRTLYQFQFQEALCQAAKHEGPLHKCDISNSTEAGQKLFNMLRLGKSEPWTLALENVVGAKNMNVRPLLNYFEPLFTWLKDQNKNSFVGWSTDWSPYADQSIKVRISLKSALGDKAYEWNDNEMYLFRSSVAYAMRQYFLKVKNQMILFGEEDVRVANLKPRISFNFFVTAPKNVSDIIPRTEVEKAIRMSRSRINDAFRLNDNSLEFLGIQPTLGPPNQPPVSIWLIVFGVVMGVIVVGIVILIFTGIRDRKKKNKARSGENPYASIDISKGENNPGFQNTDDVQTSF
T1 sequence (P00742 235-488 limits assumed): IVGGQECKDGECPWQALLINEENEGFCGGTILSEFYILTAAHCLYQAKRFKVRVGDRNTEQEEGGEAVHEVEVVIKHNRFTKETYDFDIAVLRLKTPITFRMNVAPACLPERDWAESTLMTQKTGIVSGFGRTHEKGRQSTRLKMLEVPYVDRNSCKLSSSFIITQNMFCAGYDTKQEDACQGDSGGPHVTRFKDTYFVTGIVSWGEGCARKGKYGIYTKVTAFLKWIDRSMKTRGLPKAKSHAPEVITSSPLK
T1 sequence (P00742 41-179 partner limits assumed): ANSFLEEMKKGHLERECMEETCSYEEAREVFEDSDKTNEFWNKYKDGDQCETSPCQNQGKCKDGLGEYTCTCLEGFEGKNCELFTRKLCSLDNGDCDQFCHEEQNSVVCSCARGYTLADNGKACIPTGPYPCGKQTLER
T2 sequence (P03951 388-625 limits assumed): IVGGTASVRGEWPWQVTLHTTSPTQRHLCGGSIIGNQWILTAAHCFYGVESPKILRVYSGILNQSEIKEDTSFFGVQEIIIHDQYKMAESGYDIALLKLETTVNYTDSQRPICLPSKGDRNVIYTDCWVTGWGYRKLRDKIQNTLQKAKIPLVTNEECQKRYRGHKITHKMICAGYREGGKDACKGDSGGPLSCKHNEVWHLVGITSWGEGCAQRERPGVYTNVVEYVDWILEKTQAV
T2 sequence (P03951 19-387 partner limits assumed): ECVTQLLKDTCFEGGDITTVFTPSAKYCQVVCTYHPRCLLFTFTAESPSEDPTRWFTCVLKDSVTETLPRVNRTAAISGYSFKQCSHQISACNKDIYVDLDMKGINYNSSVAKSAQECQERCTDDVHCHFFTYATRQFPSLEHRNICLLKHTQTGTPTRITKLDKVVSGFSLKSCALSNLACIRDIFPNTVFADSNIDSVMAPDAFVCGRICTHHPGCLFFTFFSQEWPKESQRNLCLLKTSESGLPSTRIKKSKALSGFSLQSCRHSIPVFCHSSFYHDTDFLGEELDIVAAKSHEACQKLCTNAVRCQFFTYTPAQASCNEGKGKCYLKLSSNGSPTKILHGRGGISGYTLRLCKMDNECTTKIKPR
Sequence of MMP 10 (P09238 99-476): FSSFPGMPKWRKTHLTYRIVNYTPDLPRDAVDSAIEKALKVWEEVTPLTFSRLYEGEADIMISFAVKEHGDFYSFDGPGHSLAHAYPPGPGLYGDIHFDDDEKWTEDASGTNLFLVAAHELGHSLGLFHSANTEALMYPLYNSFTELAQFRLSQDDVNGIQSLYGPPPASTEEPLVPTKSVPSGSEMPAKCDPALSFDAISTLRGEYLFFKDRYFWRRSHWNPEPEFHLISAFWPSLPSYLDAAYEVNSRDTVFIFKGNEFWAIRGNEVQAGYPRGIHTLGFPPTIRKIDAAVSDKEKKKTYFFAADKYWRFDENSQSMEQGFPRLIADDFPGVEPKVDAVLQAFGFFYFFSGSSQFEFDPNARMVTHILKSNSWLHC

Compound | IC50 (ACE2) | IC50 (Cathepsin L) | IC50 (FXa; FXa) | IC50 (FXIa; FXIa) | IC50 (Furin) | IC50 (Matriptase 2) | IC50 (MMP 1) | IC50 (MMP 7) | IC50 (MMP 10) | IC50 (Mpro) | IC50 (PLpro) | IC50 (TACE) | IC50 (Thrombin a) | IC50 (Tryptase g1) | IC50 (Urokinase) | IC50 (FXa; Factor Xa) | IC50 (FXIa; Factor XIa)
N=C(N)c1cccc(C[C@H](NS(=O)(=O)c2ccccc2)c2nnco2)c1 (single isomer, unassigned) [Compound 2 (enantiomer 1, batch 1), 3-[2-Benzenesulfonamido-2-(1,3,4-oxadiazol-2-yl)ethyl]benzene-1-carboximidamide] | > 10 µM | > 10 µM | > 10 µM | > 10 µM | > 10 µM | > 10 µM | > 10 µM | > 10 µM | > 10 µM | > 10 µM | > 10 µM | > 10 µM | > 10 µM | > 10 µM | > 10 µM |  | 
COc1ccc2nc(C(Cc3cccc(C(=N)N)c3)NS(=O)(=O)c3ccccc3)sc2c1 (stereo not drawn) [Compound 11, 3-[2-Benzenesulfonamido-2-(6-methoxy-1,3-benzothiazol-2-yl)ethyl]benzene-1-carboximidamide] | > 10 µM | > 10 µM |  |  | > 10 µM | < 10 µM | > 10 µM | > 10 µM | > 10 µM | > 10 µM | > 10 µM | > 10 µM | > 10 µM | > 10 µM | < 10 µM | > 10 µM | > 10 µM
N=C(N)c1cccc(CC(NS(=O)(=O)c2ccccc2)c2nc3ccccc3s2)c1 (racemic) [1 (racemic mixture, batch 1), 3-[2-Benzenesulfonamido-2-(1,3-benzothiazol-2-yl)ethyl]benzene-1-carboximidamide] | > 10 µM | > 10 µM | > 10 µM | > 10 µM | > 10 µM | > 10 µM | > 10 µM | > 10 µM | > 10 µM | > 10 µM | > 10 µM | > 10 µM | > 10 µM | > 10 µM | > 10 µM |  | 
N=C(N)c1cccc(CC(NS(=O)(=O)c2cccc(-c3ccc(Cl)cc3Cl)c2)c2nc3ccccc3s2)c1 (racemic) [3 (racemic), 3-[2-(1,3-Benzothiazol-2-yl)-2-{2′,4′-dichloro-[1,1′-biphenyl]-3-sulfonamido}ethyl]benzene-1-carboximidamide] | > 10 µM | > 10 µM | < 10 µM | > 10 µM | > 10 µM | > 10 µM | > 10 µM | > 10 µM | > 10 µM | > 10 µM | > 10 µM | > 10 µM | < 10 µM | < 10 µM | > 10 µM |  | 
